In the experiment the target is T1, human complement factor D (Homo sapiens, UniProt P00746).
T1 construct: purchased R&D Systems 1824-SE
Nature of the experiment: In vitro enzyme inhibition of human complement factor D (Z-Lys-SBzl/DTNB, A405). Format: biochemical. To be noted: biochemical assay, substrate Z-Lys-SBzl; read-out: CFD IC50. As for the experimental part:
The ability of the compounds disclosed herein to inhibit human complement factor D inhibitory activity was quantified according to the 12-step protocol provided below. • 1. Prepare assay buffer: 50 mM Tris/HCl, pH 7.5, 1 M NaCl. • 2. […] Then dilute the serial concentrations of Nafamostat Mesilate 20-fold in assay buffer. • 3. […] 0.5% DMSO was in each well finally. • 4. […] Add 10 μl diluted test compounds duplicated into the 96-well plate. […] 0.5% DMSO was in each well finally. • 6. Dilute 20 mM substrate Z-Lys-SBzl (Bachem, Cat# M-1300) to 200 μM in assay buffer with 200 μM DTNB (Sigma, Catalog# D8130). • 7. […] Add 40 μl diluted Complement Factor D in the 96-well plate. • 8. Positive control well contains Complement Factor D without test compound. Negative control well contains neither Complement Factor D nor test compound. Using assay buffer, bring the total volume of all controls to 50 al. • 9. Pre-incubate the plate for 5 min at room temperature. • 10. Add 50 μl of diluted substrate/DTNB mixture into each well. […] For kinetic reading: Immediately start measuring absorbance (A405 nm) continuously and record data every 30 sec for 60 min. • 12. Data analysis • Inhibition activity of compound was evaluated by IC50. IC50 was calculated according the dose-response curve of compound fitted using GraphPadPrism with “log(inhibitor)-response (variable slope)” equation. • % inhibition was calculated by using following equation:
[formula] • Mean(NC): The average value of the negative control wells' A405 nm values. • Mean(PC): The average value of the positive control wells' A405 nm values.

Molecules are shown by their SMILES.

What is called IC50 is the concentration at which inhibition is half-maximal.

T1 sequence (P00746 26-253): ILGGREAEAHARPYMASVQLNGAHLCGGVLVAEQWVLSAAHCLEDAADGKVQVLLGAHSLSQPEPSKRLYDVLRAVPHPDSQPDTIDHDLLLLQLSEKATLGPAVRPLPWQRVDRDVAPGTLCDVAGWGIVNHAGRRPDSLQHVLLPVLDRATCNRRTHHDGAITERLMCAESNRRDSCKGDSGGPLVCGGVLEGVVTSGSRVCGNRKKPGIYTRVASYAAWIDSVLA

On to `N#Cc1ccc2c(c1)c(C(N)=O)nn2CC(=O)N(CC(=O)NCc1cccc(Cl)c1F)C1CC1` [Example 92, 1-(2-((2-((3-chloro-2-fluorobenzyl)amino)-2-oxoethyl)(cyclopropyl)amino)-2-oxoethyl)-5-cyano-1H-indazole-3-carboxamide], for which the half-maximal inhibitory concentration (IC50) was 0.1 to 1 µM.
The same measure for `NC(=O)c1nn(CC(=O)N(CC(=O)NCc2cccc(Cl)c2F)C2CC2)c2cccc(F)c12` [Example 97, 1-(2-((2-((3-chloro-2-fluorobenzyl)amino)-2-oxoethyl)(cyclopropyl)amino)-2-oxoethyl)-4-fluoro-1H-indazole-3-carboxamide]: 1 to 10 µM; for `NC(=O)c1nn(CC(=O)N(CC(=O)NCc2cc(Cl)cc3[nH]ncc23)C2CC2)c2ccccc12` [Example 91, 1-(2-((2-(((6-chloro-1H-indazol-4-yl)methyl)amino)-2-oxoethyl)(cyclopropyl)amino)-2-oxoethyl)-1H-indazole-3-carboxamide]: 0.1 to 1 µM; for `NC(=O)n1cc(NC(=O)N(CC(=O)NCc2cccc(Cl)c2F)C2CCNC2)c2ccccc21` (stereo not drawn) [Example 52, 3-(3-(2-((3-chloro-2-fluorobenzyl)amino)-2-oxoethyl)-3-(pyrrolidin-3-yl)ureido)-1H-indole-1-carboxamide]: 0.1 to 1 µM.
In the case of `CC(CCF)N(CC(=O)NCc1cccc(Cl)c1F)C(=O)Cn1nc(C(N)=O)c2ccccc21` (stereo not drawn) [Example 60, 1-(2-((2-((3-chloro-2-fluorobenzyl)amino)-2-oxoethyl)(4-fluorobutan-2-yl)amino)-2-oxoethyl)-1H-indazole-3-carboxamide] it was 0.1 to 1 µM; in that of `N#Cc1ccc(Cl)c(F)c1CNC(=O)CN(C(=O)Cn1nc(C(N)=O)c2ccccc21)C1CC1` [Example 87, 1-(2-((2-((3-chloro-6-cyano-2-fluorobenzyl)amino)-2-oxoethyl)(cyclopropyl)amino)-2-oxoethyl)-1H-indazole-3-carboxamide], 0.1 to 1 µM.
The same measure for `NC(=O)c1cc(C(=O)O)n(CC(=O)N(CC(=O)NCc2cccc(Cl)c2F)C2CC2)n1` [Example 44, 3-carbamoyl-1-(2-((2-((3-chloro-2-fluorobenzyl)amino)-2-oxoethyl)(cyclopropyl)amino)-2-oxoethyl)-1H-pyrazole-5-carboxylic acid]: 1 to 10 µM; for `NC(=O)c1nn(CC(=O)N(CC(=O)NCc2cccc(CO)c2F)C2CC2)c2ccccc12` [Example 126, 1-(2-(cyclopropyl(2-((2-fluoro-3-(hydroxymethyl)benzyl)amino)-2-oxoethyl)amino)-2-oxoethyl)-1H-indazole-3-carboxamide]: > 10 µM.
Take `NC(=O)c1nn(CC(=O)N(CC(=O)NCc2cccc(Cl)c2F)C2CC2)c2c(C(F)(F)F)cccc12` [Example 111, 1-(2-((2-((3-chloro-2-fluorobenzyl)amino)-2-oxoethyl)(cyclopropyl)amino)-2-oxoethyl)-7-(trifluoromethyl)-1H-indazole-3-carboxamide]: the IC50 was < 0.1 µM.
In the case of `CC(=O)c1nc(CC(=O)N(CC(=O)NCc2cccc(Cl)c2F)C2CC2)n2ccccc12` [Example 48, 2-(1-acetylimidazo[1,5-a]pyridin-3-yl)-N-(2-((3-chloro-2-fluorobenzyl)amino)-2-oxoethyl)-N-cyclopropylacetamide] it was 0.1 to 1 µM; in that of `NC(=O)c1nn(CC(=O)N(CC(=O)NCc2cccc(C(F)(F)F)c2F)C2CC2)c2ccccc12` [Example 136, 1-(2-(cyclopropyl(2-((2-fluoro-3-(trifluoromethyl)benzyl)amino)-2-oxoethyl)amino)-2-oxoethyl)-1H-indazole-3-carboxamide], 1 to 10 µM; in that of `NC(=O)c1nn(CC(=O)N(CC(=O)NCc2cccc(Cl)c2F)c2ccccc2)c2ccccc12` [Example 36, 1-(2-((2-((3-chloro-2-fluorobenzyl)amino)-2-oxoethyl)(phenyl)amino)-2-oxoethyl)-1H-indazole-3-carboxamide], 1 to 10 µM.
